Laboratory results from US20160113932A1, “TREATMENT OF CANCERS USING PI3 KINASE ISOFORM MODULATORS” (INFINITY PHARMACEUTICALS, INC., priority 2013, published 2016).

Key:
HH = details: in combination with Compound 292
Experimental: (§1) The method is described as follows. Cells are thawed from a liquid nitrogen preserved state. Once cells have been expanded and divide at their expected doubling times, screening begins. Cells are seeded in growth media in either black 1536-well or 384-well tissue culture treated plates. […] These Tzero (T0) plates are read using ultra-sensitive luminescence on Envision plate readers (Perkin Elmer). […] All data points are collected via automated processes, quality controlled and analyzed using Zalicus software.
(§2) I ranges from 0% (when T=V) to 100% (when T=0). […] The measure of effect in the experiment can be the inhibition of cellular response relative to the untreated level (vehicle alone). For untreated vehicle and treated levels V and T, a fractional inhibition 1=1−T/V is calculated. The inhibition ranges from 0% at the untreated level to 100% when T=0 Inhibition levels are negative for agents that actually increase levels. Other effect measures, such as an activity ratio r=T/V may be more appropriate for some assays. When activity ratios (e.g, fold increase over […] control) are being used, the effect can be measured using an induction I=1n(T/V). With this definition, all effect expressions are the same as for inhibition.
(§3) Growth Inhibition (GI) is used as a measure of cell viability. […] A GI reading of 100% represents complete growth inhibition-T72 compound-treated and T0 vehicle signals are matched. […] A GI reading of 200% represents complete death of all cells in the culture well. Compounds reaching an activity plateau of GI 200% are considered cytotoxic. GI is calculated by applying the following test and equation: […]
(§4) Combination analysis data were collected in a 6×6 dose matrix. Synergy is calculated by comparing a combination's response to those of its single compound, against the drug-with-itself dose-additive reference model. Deviations from dose additivity may be assessed visually on an isobologram or numerically with a Combination Index (CI). […] Additive effect is CI=1.0. […] Antagonistic effect is CI>1.0.
(§5) To measure combination effects in excess of Loewe additivity, a scalar measure to characterize the strength of synergistic interaction termed the Synergy Score is devised. The Synergy Score is calculated as: […]
(§6) The fractional inhibition for each component agent and combination point in the matrix is calculated relative to the median of all vehicle-treated control wells. The Synergy Score equation integrates the experimentally-observed activity volume at each point in the matrix in excess of a model surface numerically derived from the activity of the component agents using the Loewe model for additivity. Additional terms in the Synergy Score equation (above) are used to normalize for various dilution factors used for individual agents and to allow for comparison of synergy scores across an entire experiment. The inclusion of positive inhibition gating or an Idata multiplier removes noise near the zero effect level, and biases results for synergistic interactions at that occur at high activity levels.
(§7) Loewe Volume (Loewe Vol) is used to assess the overall magnitude of the combination interaction in excess of the Loewe additivity model. Loewe Volume is particularly useful when distinguishing synergistic increases in a phenotypic activity (positive Loewe Volume) versus synergistic antagonisms (negative Loewe Volume). […] This model defines additivity as a non-synergistic combination interaction where the combination dose matrix surface should be indistinguishable from either drug crossed with itself.

TMD8 = details: in combination with Compound 292
Experimental: as §1, §2, §3, §4, §5, §6, §7

KARPAS-299 = details: in combination with Compound 292
Experimental: as §1, §2, §3, §4, §5, §6, §7

DOHH-2 = details: in combination with Compound 292
Experimental: as §1, §2, §3, §4, §5, §6, §7

Farage = details: in combination with Compound 292
Experimental: as §1, §2, §3, §4, §5, §6, §7

Jeko-1 = details: in combination with Compound 292
Experimental: as §1, §2, §3, §4, §5, §6, §7

OPM-2 = details: in combination with Compound 292
Experimental: as §1, §2, §3, §4, §5, §6, §7

OCI-Ly7 = details: in combination with Compound 292
Experimental: as §1, §2, §3, §4, §5, §6, §7

NCI-H929 = details: in combination with Compound 292
Experimental: as §1, §2, §3, §4, §5, §6, §7

WSU-NHL = details: in combination with Compound 292
Experimental: as §1, §2, §3, §4, §5, §6, §7

HBL-1 = details: in combination with Compound 292
Experimental: as §1, §2, §3, §4, §5, §6, §7

KARPAS-422 = details: in combination with Compound 292
Experimental: as §1, §2, §3, §4, §5, §6, §7

Mino = details: in combination with Compound 292
Experimental: as §1, §2, §3, §4, §5, §6, §7

SU-DHL-10-epst = details: in combination with Compound 292
Experimental: as §1, §2, §3, §4, §5, §6, §7

OCI-LY3 = details: in combination with Compound 292
Experimental: as §1, §2, §3, §4, §5, §6, §7

GRANTA-519 = details: in combination with Compound 292
Experimental: as §1, §2, §3, §4, §5, §6, §7

U-2932 = details: in combination with Compound 292
Experimental: as §1, §2, §3, §4, §5, §6, §7

SU-DHL-4-epst = details: in combination with Compound 292
Experimental: as §1, §2, §3, §4, §5, §6, §7

[1] = test system: SU-DHL-4 GCB DLBCL cell line; test: Cell viability with Compound 292, ibrutinib or combination, 72 h CellTiter Glo; format: cell-based; details: SU-DHL-4, 72 hours
[2] = test system: phospho-AKT in OCI-LY-8 cells; test: phospho-AKT after BCR crosslinking; format: cell-based
Experimental: Activation of the PI3K pathway is an important component of normal B-cell receptor (BCR) signaling and has been implicated in the pathogenesis of DLBCL. […] There was rapid modulation of phospho-AKT and phospho-PRAS40 by 30 minutes, whereas modulation of phospho-S6 was not detected until after 8 hours.
These biochemical findings indicate a mechanistic rationale for combination of PI3K-δ,γ and BTK inhibition.

RL = test: Combination with BTK inhibitor, 72 h ATPLite, 6x6 dose matrix (follicular lymphoma); format: cell-based; details: in combination with Compound 292
Experimental: as §1, §2, §3, §4, §5, §6, §7

phospho-BTK in SU-DHL-4 = test: phospho-BTK in DLBCL cells; format: cell-based

C=CC(=O)N1CCC[C@@H](n2nc(-c3ccc(Oc4ccccc4)cc3)c3c(N)ncnc32)C1 [ibrutinib, 1-[(3R)-3-[4-Amino-3-(4-phenoxyphenyl)pyrazolo[3,4-d]pyrimidin-1-yl]piperidin-1-yl]prop-2-en-1-one]
CI50 (growth inhibition) (HH): S (S=0.01 to <0.5) | CI50 (inhibition) (HH): S (S=0.01 to <0.5) | Synergy Score (growth inhibition) (HH): A2 (A2=1 to <3) | Synergy Score (inhibition) (HH): A2 (A2=1 to <3) | CI50 (growth inhibition) (TMD8): S (S=0.01 to <0.5) | CI50 (inhibition) (TMD8): S (S=0.01 to <0.5) | Synergy Score (growth inhibition) (TMD8): A3 (A3=>3) | Synergy Score (inhibition) (TMD8): A3 (A3=>3) | Synergy Score (growth inhibition) (KARPAS-299): A1 (A1=0.0001 to <1) | Synergy Score (inhibition) (KARPAS-299): A1 (A1=0.0001 to <1) | CI50 (growth inhibition) (DOHH-2): S (S=0.01 to <0.5) | CI50 (inhibition) (DOHH-2): S (S=0.01 to <0.5) | Synergy Score (growth inhibition) (DOHH-2): A3 (A3=>3) | Synergy Score (inhibition) (DOHH-2): A3 (A3=>3) | CI50 (growth inhibition) (Farage): S (S=0.01 to <0.5) | CI50 (inhibition) (Farage): S (S=0.01 to <0.5) | Synergy Score (growth inhibition) (Farage): A3 (A3=>3) | Synergy Score (inhibition) (Farage): A3 (A3=>3) | CI50 (growth inhibition) (Jeko-1): S (S=0.01 to <0.5) | CI50 (inhibition) (Jeko-1): T (T=0.5 to <0.7) | Synergy Score (growth inhibition) (Jeko-1): A2 (A2=1 to <3) | Synergy Score (inhibition) (Jeko-1): A2 (A2=1 to <3) | Synergy Score (growth inhibition) (OPM-2): A1 (A1=0.0001 to <1) | Synergy Score (inhibition) (OPM-2): A1 (A1=0.0001 to <1) | Synergy Score (growth inhibition) (OCI-Ly7): A1 (A1=0.0001 to <1) | Synergy Score (inhibition) (OCI-Ly7): A1 (A1=0.0001 to <1) | CI50 (growth inhibition) (NCI-H929): U (U=0.7 to <1) | CI50 (inhibition) (NCI-H929): S (S=0.01 to <0.5) | Synergy Score (growth inhibition) (NCI-H929): A2 (A2=1 to <3) | Synergy Score (inhibition) (NCI-H929): A1 (A1=0.0001 to <1) | CI50 (growth inhibition) (WSU-NHL): T (T=0.5 to <0.7) | CI50 (inhibition) (WSU-NHL): S (S=0.01 to <0.5) | Synergy Score (growth inhibition) (WSU-NHL): A3 (A3=>3) | Synergy Score (inhibition) (WSU-NHL): A3 (A3=>3) | CI50 (growth inhibition) (HBL-1): S (S=0.01 to <0.5) | Synergy Score (growth inhibition) (HBL-1): A3 (A3=>3) | Synergy Score (inhibition) (HBL-1): A1 (A1=0.0001 to <1) | CI50 (growth inhibition) (KARPAS-422): S (S=0.01 to <0.5) | CI50 (inhibition) (KARPAS-422): S (S=0.01 to <0.5) | Synergy Score (growth inhibition) (KARPAS-422): A2 (A2=1 to <3) | Synergy Score (inhibition) (KARPAS-422): A2 (A2=1 to <3) | CI50 (growth inhibition) (Mino): T (T=0.5 to <0.7) | CI50 (inhibition) (Mino): S (S=0.01 to <0.5) | Synergy Score (growth inhibition) (Mino): A3 (A3=>3) | Synergy Score (inhibition) (Mino): A2 (A2=1 to <3) | CI50 (growth inhibition) (SU-DHL-10-epst): S (S=0.01 to <0.5) | CI50 (inhibition) (SU-DHL-10-epst): S (S=0.01 to <0.5) | Synergy Score (growth inhibition) (SU-DHL-10-epst): A3 (A3=>3) | Synergy Score (inhibition) (SU-DHL-10-epst): A3 (A3=>3) | Synergy Score (growth inhibition) (OCI-LY3): A1 (A1=0.0001 to <1) | Synergy Score (inhibition) (OCI-LY3): A1 (A1=0.0001 to <1) | CI50 (growth inhibition) (GRANTA-519): S (S=0.01 to <0.5) | Synergy Score (growth inhibition) (GRANTA-519): A2 (A2=1 to <3) | Synergy Score (inhibition) (GRANTA-519): A1 (A1=0.0001 to <1) | CI50 (growth inhibition) (U-2932): S (S=0.01 to <0.5) | CI50 (inhibition) (U-2932): T (T=0.5 to <0.7) | Synergy Score (growth inhibition) (U-2932): A2 (A2=1 to <3) | Synergy Score (inhibition) (U-2932): A1 (A1=0.0001 to <1) | CI50 (growth inhibition) (SU-DHL-4-epst): S (S=0.01 to <0.5) | CI50 (inhibition) (SU-DHL-4-epst): S (S=0.01 to <0.5) | Synergy Score (growth inhibition) (SU-DHL-4-epst): A3 (A3=>3) | Synergy Score (inhibition) (SU-DHL-4-epst): A3 (A3=>3) | cell viability, monotherapy [1]: dose dependently inhibited viability | inhibition of the increase in phospho-AKT [2]: only partially inhibited | CI50 (growth inhibition) (RL): U (U=0.7 to <1) | CI50 (inhibition) (RL): W (W=≧1) | Synergy Score (growth inhibition) (RL): A2 (A2=1 to <3) | Synergy Score (inhibition) (RL): A2 (A2=1 to <3) | inhibition of phospho-BTK (phospho-BTK in SU-DHL-4): robust inhibition
